Test results reported in patent publication US20240409566A1, “DELIVERY OF THERAPEUTIC ALKALOID COMPOUNDS” (priority 2022, published 2024).

Columns and labels:
[1] = Plasma stability assay, rat plasma; format: in vitro ADME
Experimental: (§1) Compound stability in rat and human plasma was measured by incubating compound with rat or human plasma at 37° C. in a microwell plate for sequential time points, monitoring pro-drug disappearance and metabolite appearance (mesembranol or 6-epi-mesembranol). A 2 mM stock solution of test compounds were prepared by dissolving appropriate amount of compounds in DMSO. The 2 mM stock was further diluted 200-folds in rat or human plasma to attain a final concentration of 10 μM respectively (0.5% DMSO). 50 μL aliquots of positive controls and test compounds spiked into rat or human plasma (n=2) were added to a pre-warmed plate (37° C.) and shaken at 50 rpm. At each respective time point, the reaction was stopped by adding 500 μL of acetonitrile containing internal standards (100 nM aprozolam, 200 nM caffeine, 100 nM tolbutamide). All samples were vortexed for 10 minutes, followed by centrifugation at 3,220 g for 30 minutes to precipitate proteins. 100 μL of the supernatant is transferred to a new plate. The supernatant will be diluted with ultrapure water according to the LC-MS signal response and peak shape. The concentrations of test compounds and positive control were quantified in the test samples using LC-MS/MS. Results reported as % of prodrug compound remaining at time point, and % of metabolite (mesembranol or 6-epi-mesembranol,) accumulated at time point.

[2] = Plasma stability assay, human plasma; format: in vitro ADME
Experimental: as §1

[3] = rat plasma, 37° C., 10 μM, 0 min, % prodrug remaining
[4] = rat plasma, 37° C., 10 μM, 10 min, % prodrug remaining
[5] = rat plasma, 37° C., 10 μM, 30 min, % prodrug remaining
[6] = rat plasma, 37° C., 10 μM, 60 min, % prodrug remaining
[7] = rat plasma, 37° C., 10 μM, 120 min, % prodrug remaining
[8] = rat plasma, 37° C., 10 μM, 240 min, % prodrug remaining
[9] = human plasma, 37° C., 10 μM, 0 min, % prodrug remaining
[10] = human plasma, 37° C., 10 μM, 10 min, % prodrug remaining
[11] = human plasma, 37° C., 10 μM, 30 min, % prodrug remaining
[12] = human plasma, 37° C., 10 μM, 60 min, % prodrug remaining
[13] = human plasma, 37° C., 10 μM, 120 min, % prodrug remaining
[14] = human plasma, 37° C., 10 μM, 240 min, % prodrug remaining

Compound | Prodrug (%) ([1]; rat, 0 min, 10 µM) | Prodrug (%) ([1]; rat, 10 min, 10 µM) | Prodrug (%) ([1]; rat, 30 min, 10 µM) | Prodrug (%) ([1]; rat, 60 min, 10 µM) | Prodrug (%) ([1]; rat, 120 min, 10 µM) | Prodrug (%) ([1]; rat, 240 min, 10 µM) | Prodrug (%) ([2]; human, 0 min, 10 µM) | Prodrug (%) ([2]; human, 10 min, 10 µM) | Prodrug (%) ([2]; human, 30 min, 10 µM) | Prodrug (%) ([2]; human, 60 min, 10 µM) | Prodrug (%) ([2]; human, 120 min, 10 µM) | Prodrug (%) ([2]; human, 240 min, 10 µM) | also measured
COc1ccc([C@@]23CC[C@H](OC(=O)C(C)C)C[C@@H]2N(C)CC3)cc1OC [Compound 103, (3aS,6S,7aS)-3a-(3,4-dimethoxyphenyl)-1-methyloctahydro-1H-indol-6-yl isobutyrate] | 100.0 | 56.1 | 12.2 | 0.6 | 0.1 | 0.0 | 100.00 | >99.0 | >99.0 | 97.28 | 97.48 | 87.17 | –
COc1ccc([C@@]23CC[C@@H](OC(=O)C(C)C)C[C@@H]2N(C)CC3)cc1OC [Compound 203, (3aS,6R,7aS)-3a-(3,4-dimethoxyphenyl)-1-methyloctahydro-1H-indol-6-yl isobutyrate] | 100.0 | 0.1 | 0.1 | 0.0 | 0.0 | 0.0 | 100.0 | 0.1 | 0.1 | 0.1 | 0.1 | 0.1 | –
COc1ccc([C@@]23CC[C@@H](OC(=O)N(C)C)C[C@@H]2N(C)CC3)cc1OC [Compound 201, (3aS,6R,7aS)-3a-(3,4-dimethoxyphenyl)-1-methyloctahydro-1H-indol-6-yl dimethylcarbamate] | – | – | – | – | – | – | – | – | – | – | – | – | Prodrug (%) [1, 3]: 100.0%; Prodrug (%) [1, 4]: >99.0%; Prodrug (%) [1, 5]: >99.0%; Prodrug (%) [1, 6]: >99.0%; Prodrug (%) [1, 7]: >99.0%; Prodrug (%) [1, 8]: 97.6%; Prodrug (%) [2, 9]: 100.0%; Prodrug (%) [2, 10]: 96.3%; Prodrug (%) [2, 11]: 97.0%; Prodrug (%) [2, 12]: 94.8%; Prodrug (%) [2, 13]: 97.7%; Prodrug (%) [2, 14]: >99.0%
COc1ccc([C@@]23CC[C@@H](OC(=O)C(C)(C)C)C[C@@H]2N(C)CC3)cc1OC [Compound 202, (3aS,6R,7aS)-3a-(3,4-dimethoxyphenyl)-1-methyloctahydro-1H-indol-6-yl pivalate] | 100.0 | 80.6 | 38.9 | 9.6 | 0.6 | 0.0 | 100.0 | >99.0 | >99.0 | 96.3 | 94.7 | 88.1 | –
COc1ccc([C@@]23CC[C@@H](OCOC(=O)C(C)C)C[C@@H]2N(C)CC3)cc1OC [Compound 208, (((3aS,6R,7aS)-3a-(3,4-dimethoxyphenyl)-1-methyloctahydro-1H-indol-6-yl)oxy)methyl isobutyrate] | 100.0 | 0.0 | 0.0 | 0.0 | 0.0 | 0.0 | 100.0 | 0.1 | 0.2 | 0.2 | 0.0 | 0.0 | –
CCCC(=O)OC1CC[C@@]2(c3ccc(OC)c(OC)c3)CCN(C)[C@H]2C1 (stereo in doubt) [Compound 206, (3aS,6S,7aS)-3a-(3,4-dimethoxyphenyl)-1-methyloctahydro-1H-indol-6-yl butyrate] | 100.0 | 0.8 | 0.1 | 0.0 | 0.0 | 0.0 | 100.0 | >99.0 | 92.7 | 83.8 | 79.1 | 68.0 | –
COc1ccc([C@@]23CC[C@H](OC(=O)c4ccccc4)C[C@@H]2N(C)CC3)cc1OC [Compound 104, (3aS,6S,7aS)-3a-(3,4-dimethoxyphenyl)-1-methyloctahydro-1H-indol-6-yl benzoate] | – | – | – | – | – | – | – | – | – | – | – | – | Prodrug (%) [1, 3]: 100.0%; Prodrug (%) [1, 4]: 62.0%; Prodrug (%) [1, 5]: 27.5%; Prodrug (%) [1, 6]: 7.5%; Prodrug (%) [1, 7]: 1.4%; Prodrug (%) [1, 8]: 0.6%; Prodrug (%) [2, 9]: 100.00%; Prodrug (%) [2, 10]: >99.0%; Prodrug (%) [2, 11]: 97.34%; Prodrug (%) [2, 12]: 97.40%; Prodrug (%) [2, 13]: 95.15%; Prodrug (%) [2, 14]: 90.28%
CCCC(=O)O[C@H]1CC[C@@]2(c3ccc(OC)c(OC)c3)CCN(C)[C@H]2C1 [Compound 106, (3aS,6S,7aS)-3a-(3,4-dimethoxyphenyl)-1-methyloctahydro-1H-indol-6-yl butyrate] | 100.0 | 39.9 | 2.75 | 0.7 | 0.2 | 0.1 | 100.00 | 93.04 | 87.33 | 79.39 | 67.04 | 50.22 | –
COc1ccc([C@@]23CC[C@@H](OCOC(=O)C(C)(C)C)C[C@@H]2N(C)CC3)cc1OC [Compound 207, (((3aS,6R,7aS)-3a-(3,4-dimethoxyphenyl)-1-methyloctahydro-1H-indol-6-yl)oxy)methyl pivalate] | 100.0 | 26.5 | 0.5 | 0.0 | 0.0 | 0.0 | 100.0 | 42.0 | 6.9 | 1.6 | 0.7 | 0.1 | –
COc1ccc([C@@]23CC[C@H](OC(=O)C(C)(C)C)C[C@@H]2N(C)CC3)cc1OC [Compound 102, (3aS,6S,7aS)-3a-(3,4-dimethoxyphenyl)-1-methyloctahydro-1H-indol-6-yl pivalate] | 100.0 | >99.0 | 77.8 | 68.1 | 42.3 | 15.4 | 100.00 | 97.52 | 95.20 | 92.88 | >99.0 | 94.80 | –
CCCCC(=O)OC1CC[C@@]2(c3ccc(OC)c(OC)c3)CCN(C)[C@H]2C1 (stereo in doubt) [Compound 205, (3aS,6S,7aS)-3a-(3,4-dimethoxyphenyl)-1-methyloctahydro-1H-indol-6-yl pentanoate] | 100.0 | 0.6 | 0.1 | 0.1 | 0.1 | 0.0 | 100.0 | 96.7 | 90.7 | 84.3 | 80.3 | 67.9 | –
CCCC(=O)OCO[C@@H]1CC[C@@]2(c3ccc(OC)c(OC)c3)CCN(C)[C@H]2C1 [Compound 210, (((3aS,6R,7aS)-3a-(3,4-dimethoxyphenyl)-1-methyloctahydro-1H-indol-6-yl)oxy)methyl butyrate] | 100.0 | 0.0 | 0.0 | 0.0 | 0.1 | 0.1 | 100.0 | 0.5 | 1.0 | 0.6 | 0.1 | 0.1 | –
CCCCC(=O)O[C@H]1CC[C@@]2(c3ccc(OC)c(OC)c3)CCN(C)[C@H]2C1 [Compound 105, (3aS,6S,7aS)-3a-(3,4-dimethoxyphenyl)-1-methyloctahydro-1H-indol-6-yl pentanoate] | 100.0 | 10.8 | 0.5 | 0.1 | 0.0 | 0.0 | 100.00 | 96.40 | 89.85 | 81.61 | 72.68 | 50.16 | –
